The assay deals with MDA-MB-231 cells. As to the kind of experiment: Cell proliferation assay (CellTiter-Glo), MDA-MB-231. It counts as cell-based. The following applies: Homo sapiens, MDA-MB-231, 72 h, 72 h treatment, Celltiter-Glo luminescence. The method, then: Example 238: Cell Proliferation Assay
MDA-MB-231 and EVSA-T cells (10000 cells/well) were plated onto 96-well plates (Corning, Cat #3917) in 95 μL of medium (RPMI-1640 containing 10% FBS and MEM containing 10% FBS, respectively). Compounds with various concentrations ([…]) were added to the wells. After treatment for 72 h, 30 μL of Celltiter-Glo reagent (Promega, Cat #G7573) was added and incubated at room temperature for 15 min, then the luminescent signal was determined using a microplate reader (Biotek, SynergyH1). The inhibitor dose-response curves were analyzed using normalized IC50 regression curve fitting with control based normalization.
Background: Cellular ATP, detected with luciferase, serves as a proxy for viable cell number.
Regarding `C[C@@H]1CN(CC(=O)N2CC(C)(C)c3c2cc(Cc2ccc(F)cc2)c2nc(CS(C)(=O)=O)nn32)[C@@H](CN2CCOC[C@H]2C)CN1` [Compound 141, 1-(4-(4-fluorobenzyl)-8,8-dimethyl-2-((methylsulfonyl)methyl)-7,8-dihydro-6H-pyrrolo[2,3-e][1,2,4]triazolo[1,5-a]pyridin-6-yl)-2-((2R,5R)-5-methyl-2-(((R)-3-methylmorpholino)methyl)piperazin-1-yl)ethan-1-one], the IC50 (in general, the concentration that gives 50% inhibition) was determined as 0.31 µM.
With `C[C@@H]1CN(CC(=O)N2CC(C)(C)c3c2cc(Cc2ccc(F)cc2)c2nnc(C(N)=O)n32)[C@@H](CN2CCOC[C@H]2C)CN1` [Compound 145, 4-(4-fluorobenzyl)-8,8-dimethyl-6-(2-((2R,5R)-5-methyl-2-(((R)-3-methylmorpholino)methyl)piperazin-1-yl)acetyl)-7,8-dihydro-6H-pyrrolo[2,3-e][1,2,4]triazolo[4,3-a]pyridine-1-carboxamide] the figure was 0.45 µM; with `C[C@@H]1CN(CC(=O)N2CC(C)(C)c3c2cc(Cc2ccc(F)cc2)c2nc(C(F)(F)F)cn32)[C@@H](CN2CCOCC2(C)C)CN1` [Compound 146, 2-((2R,5R)-2-((3,3-dimethylmorpholino)methyl)-5-methylpiperazin-1-yl)-1-(4-(4-fluorobenzyl)-8,8-dimethyl-2-(trifluoromethyl)-7,8-dihydro-6H-imidazo[1,2-a]pyrrolo[2,3-e]pyridin-6-yl)ethan-1-one], 0.27 µM; with `C[C@@H]1CN(CC(=O)N2CC(C)(C)c3c2cc(Cc2ccc(F)cc2)c2cc(C(F)(F)F)nn32)[C@@H](CN2CCOC[C@H]2C)CN1` [Compound 150, 1-(4-(4-fluorobenzyl)-8,8-dimethyl-2-(trifluoromethyl)-7,8-dihydro-6H-pyrazolo[1,5-a]pyrrolo[2,3-e]pyridin-6-yl)-2-((2R,5R)-5-methyl-2-(((R)-3-methylmorpholino)methyl)piperazin-1-yl)ethan-1-one], 0.49 µM.
Next, `C[C@@H]1CN(CC(=O)N2CC(C)(C)c3c2cc(Cn2ccc(F)cc2=O)c2ncnn32)[C@@H](CN2CCOC[C@H]2C)CN1` [Compound 151, 1-((8,8-dimethyl-6-(2-((2R,5R)-5-methyl-2-(((R)-3-methylmorpholino)methyl)piperazin-1-yl)acetyl)-7,8-dihydro-6H-pyrrolo[2,3-e][1,2,4]triazolo[1,5-a]pyridin-4-yl)methyl)-4-fluoropyridin-2(1H)-one]: 3.8 µM.
With `C[C@@H]1CN(CC(=O)N2CC(C)(C)c3c2cc(Cc2ccc(F)cc2F)c2nncn32)[C@@H](CN2CCOC[C@H]2C)CN1` [Compound 155, 1-(4-(2,4-difluorobenzyl)-8,8-dimethyl-7,8-dihydro-6H-pyrrolo[2,3-e][1,2,4]triazolo[4,3-a]pyridin-6-yl)-2-((2R,5R)-5-methyl-2-(((R)-3-methylmorpholino)methyl)piperazin-1-yl)ethan-1-one] the figure was 0.72 µM.
For `Cc1nnc2c(Cc3ccc(F)cc3F)cc3c(n12)C(C)(C)CN3C(=O)CN1C[C@@H](C)NC[C@@H]1CN1CCOC[C@H]1C` [Compound 156, 1-(4-(2,4-difluorobenzyl)-1,8,8-trimethyl-7,8-dihydro-6H-pyrrolo[2,3-e][1,2,4]triazolo[4,3-a]pyridin-6-yl)-2-((2R,5R)-5-methyl-2-(((R)-3-methylmorpholino)methyl)piperazin-1-yl)ethan-1-one], the IC50 was determined as 1.33 µM.
With `C[C@@H]1CN(CC(=O)N2CC(C)(C)c3c2cc(Cc2ccc(F)cc2)c2nnc(C(F)F)n32)[C@@H](CN2CCOC[C@H]2C)CN1` [Compound 157, 1-(1-(difluoromethyl)-4-(4-fluorobenzyl)-8,8-dimethyl-7,8-dihydro-6H-pyrrolo[2,3-e][1,2,4]triazolo[4,3-a]pyridin-6-yl)-2-((2R,5R)-5-methyl-2-(((R)-3-methylmorpholino)methyl)piperazin-1-yl)ethan-1-one] the figure was 0.2 µM; with `Cc1nc(C)c(Cc2cc3c(n4ncnc24)C(C)(C)CN3C(=O)CN2C[C@@H](C)NC[C@@H]2CN2CCOC[C@H]2C)s1` [Compound 158, 1-(4-((2,4-dimethylthiazol-5-yl)methyl)-8,8-dimethyl-7,8-dihydro-6H-pyrrolo[2,3-e][1,2,4]triazolo[1,5-a]pyridin-6-yl)-2-((2R,5R)-5-methyl-2-(((R)-3-methylmorpholino)methyl)piperazin-1-yl)ethan-1-one], 0.72 µM.
With `C[C@@H]1CN(CC(=O)N2CC(C)(C)c3c2cc(Cc2ccc(F)cc2)c2nc(C(F)(F)F)cn32)[C@@H](CN2CCOC[C@H]2CO)CN1` [Compound 160, 1-(4-(4-fluorobenzyl)-8,8-dimethyl-2-(trifluoromethyl)-7,8-dihydro-6H-imidazo[1,2-a]pyrrolo[2,3-e]pyridin-6-yl)-2-((2R,5R)-2-((3-(hydroxymethyl)morpholino)methyl)-5-methylpiperazin-1-yl)ethan-1-one] the figure was 0.33 µM; with `C[C@@H]1CN(CC(=O)N2CC(C)(C)c3c2cc(Cc2c(F)cc(F)cc2F)c2nncn32)[C@@H](CN2CCOC[C@H]2C)CN1` [Compound 164, 1-(8,8-dimethyl-4-(2,4,6-trifluorobenzyl)-7,8-dihydro-6H-pyrrolo[2,3-e][1,2,4]triazolo[4,3-a]pyridin-6-yl)-2-((2R,5R)-5-methyl-2-(((R)-3-methylmorpholino)methyl)piperazin-1-yl)ethan-1-one], 0.43 µM; with `C[C@@H]1CN(CC(=O)N2CC(C)(C)c3c2cc(C(F)(F)C24CC(C(F)(F)F)(C2)C4)c2ncnn32)[C@@H](CN2CCOC[C@H]2C)CN1` [Compound 166, 1-(4-(difluoro(3-(trifluoromethyl)bicyclo[1.1.1]pentan-1-yl)methyl)-8,8-dimethyl-7,8-dihydro-6H-pyrrolo[2,3-e][1,2,4]triazolo[1,5-a]pyridin-6-yl)-2-((2R,5R)-5-methyl-2-(((R)-3-methylmorpholino)methyl)piperazin-1-yl)ethan-1-one], 0.15 µM.
On to `C[C@@H]1CN(CC(=O)N2CC(C)(C)c3c2cc(N2CCCc4cc(F)ccc42)c2ncnn32)[C@@H](CN2CCOC[C@H]2C)CN1` [Compound 168, 1-(4-(6-fluoro-3,4-dihydroquinolin-1(2H)-yl)-8,8-dimethyl-7,8-dihydro-6H-pyrrolo[2,3-e][1,2,4]triazolo[1,5-a]pyridin-6-yl)-2-((2R,5R)-5-methyl-2-(((R)-3-methylmorpholino)methyl)piperazin-1-yl)ethan-1-one], for which the IC50 stood at 0.19 µM.
Take `C[C@@H]1CN(CC(=O)N2CC(C)(C)c3c2cc(N2CCOc4cc(F)ccc42)c2ncnn32)[C@@H](CN2CCOC[C@H]2C)CN1` [Compound 169, 1-(4-(7-fluoro-2,3-dihydro-4H-benzo[b][1,4]oxazin-4-yl)-8,8-dimethyl-7,8-dihydro-6H-pyrrolo[2,3-e][1,2,4]triazolo[1,5-a]pyridin-6-yl)-2-((2R,5R)-5-methyl-2-(((R)-3-methylmorpholino)methyl)piperazin-1-yl)ethan-1-one]: the IC50 is 0.98 µM.
For the molecule `C[C@@H]1CN(CC(=O)N2CC(C)(C)c3c2cc(Cc2ccc(F)cc2)c2nc(N4CC(C)(O)C4)nn32)[C@@H](CN2CCOC[C@H]2C)CN1` [Compound 170, 1-(4-(4-fluorobenzyl)-2-(3-hydroxy-3-methylazetidin-1-yl)-8,8-dimethyl-7,8-dihydro-6H-pyrrolo[2,3-e][1,2,4]triazolo[1,5-a]pyridin-6-yl)-2-((2R,5R)-5-methyl-2-(((R)-3-methylmorpholino)methyl)piperazin-1-yl)ethan-1-one], the IC50 was determined as 0.099 µM.
Turning to `CC(C)c1nc2c(Cc3ccc(F)cc3)cc3c(n2n1)C(C)(C)CN3C(=O)CN1C[C@@H](C)NC[C@@H]1CN1CCOC[C@H]1C` [Compound 171, 1-(4-(4-fluorobenzyl)-2-isopropyl-8,8-dimethyl-7,8-dihydro-6H-pyrrolo[2,3-e][1,2,4]triazolo[1,5-a]pyridin-6-yl)-2-((2R,5R)-5-methyl-2-(((R)-3-methylmorpholino)methyl)piperazin-1-yl)ethan-1-one], the IC50 came to 0.095 µM.
Next, `CCc1nnc2c(Cc3ccc(F)cc3)cc3c(n12)C(C)(C)CN3C(=O)CN1C[C@@H](C)NC[C@@H]1CN1CCOC[C@H]1C` [Compound 172, 1-(1-ethyl-4-(4-fluorobenzyl)-8,8-dimethyl-7,8-dihydro-6H-pyrrolo[2,3-e][1,2,4]triazolo[4,3-a]pyridin-6-yl)-2-((2R,5R)-5-methyl-2-(((R)-3-methylmorpholino)methyl)piperazin-1-yl)ethan-1-one]: 0.61 µM.
Next, `C[C@@H]1CN(CC(=O)N2CC(C)(C)c3c2cc(Cc2ccc(F)cc2)c2nc(C(F)(F)F)cn32)[C@@H](CN2[C@H](C)COC[C@@H]2C)CN1` [Compound 173, 2-((2R,5R)-2-(((3S,5R)-3,5-dimethylmorpholino)methyl)-5-methylpiperazin-1-yl)-1-(4-(4-fluorobenzyl)-8,8-dimethyl-2-(trifluoromethyl)-7,8-dihydro-6H-imidazo[1,2-a]pyrrolo[2,3-e]pyridin-6-yl)ethan-1-one]: 0.53 µM.
Regarding `CC(=O)N1CCN(C[C@H]2CN[C@H](C)CN2CC(=O)N2CC(C)(C)c3c2cc(Cc2ccc(F)cc2)c2nc(C(F)(F)F)cn32)[C@H](C)C1` [Compound 174, 2-((2R,5R)-2-(((R)-4-acetyl-2-methylpiperazin-1-yl)methy 1)-5-methylpiperazin-1-yl)-1-(4-(4-fluorobenzyl)-8,8-dimethyl-2-(trifluoromethyl)-7,8-dihydro-6H-imidazo[1,2-a]pyrrolo[2,3-e]pyridin-6-yl)ethan-1-one], the IC50 is 0.45 µM.

For the origin of these results see patent US20250179073A1, “TRICYCLIC HETEROCYCLE COMPOUNDS AS IAP ANTAGONISTS” (Ascentage Pharma (Suzhou) Co., Ltd., priority 2022, published 2025).
